In US20210154272A1, “NEUROMODULATING COMPOSITIONS AND RELATED THERAPEUTIC METHODS FOR THE TREATMENT OF CANCER BY MODULATING AN ANTI-CANCER IMMUNE RESPONSE” (Flagship Pioneering Innovations V, Inc., priority 2016, published 2021):

Experiments:
primary human T cells = assay: T cell activation and cytokine secretion assay (LEGENDplex); format: cell-based
Protocol: Peripheral blood mononuclear cells (PBMCs) were isolated from whole blood by ficoll density separation. Briefly, blood was diluted 1:2 with 0.5 mM EDTA solution in PBS, loaded onto a Ficoll-filled Leucosep tube (Greiner Bio-One), and centrifuged for 20 minutes at 1000×g. After centrifugation, the leukocyte/PBMC layer on top of the separation medium was collected and sequentially washed three times with 0.5 mM EDTA solution in PBS. T cells were isolated from PBMCs using magnetic bead-based separation following vendor specification, e.g., Biolegend MojoSort Human CD4/CD8 Naïve T Cell Isolation Kit protocol. In brief, the PBMCs were labeled with biotinylated antibodies against cell surface receptors for cells not in the population of interest. The labeled cells are then captured by streptavidin-coated magnetic beads and removed by magnetic incubation. The uncaptured cells that flow through the magnetic separation are predominantly comprised of the population of interest, in this instance CD3+ T cells. T cells were stained with a 5 μM solution of Tag-it Violet™ dye (BioLegend) for 20 minutes protected from light. The stain was quenched by incubating the cells in cell culture medium containing 10% FBS (complete media). Stained cells were plated on tissue culture plates and sub-maximally activated with concanavalin A (con A) added to the culture medium. Cells were plated at 0.1×10^6 cells well. […] Cells were collected at 24, 48, and 72 hrs. Supernatants were collected at 24, 48, and 72 hrs and cytokine secretion was analyzed by flow cytometry using a LEGENDplex assay (BioLegend). In brief, following manufacturer's protocol, beads pre-coated with antibodies specific to various cytokines were incubated with cell supernatant. […] The beads were then stained and the captured cytokine composition assessed by flow cytometry.

[1] = test system: T cells in the lymph node; assay: Lymph node remodeling by hock injection, flow cytometry of lymph node cells; format: in vivo, C57BL/6J mice; conditions: hock injection of Haloperidol 48.5 nmol followed by quinpirole 0.1 nmol; 24 hours
Protocol: 24 hours after hock injection, brachial lymph nodes (LN) were harvested in culture medium (RPMI+10% FBS). LNs were transferred to 24-well tissue culture plates containing 0.5 mL LN digestion buffer (RPMI, 2% FBS, collagenase D (3.3 mg/mL), and DNAse I (40 ug/mL)). LN capsules were manually opened with two syringe (26G) needles and the LNs were incubated in digestion buffer for 15 minutes. Digested LNs were filtered with a 40 μNA cell strainer and tissues were smashed with the plunger of a 5 mL syringe. Collected cells were washed in culture medium and plated for assays. Total number of viable cells were assessed by staining with viability dye eFluor 780 (eBioscience). Surface markers of various immune cell subsets were analyzed by staining the cells with antibodies for cell identity (CD3, CD4, CD8, CD19), for the inflammatory marker CD69, and the migratory marker CCR7. The cells were then assayed by flow cytometry.

[2] = test system: macrophages differentiated from CD14+ monocytes; assay: Macrophage activation and cytokine secretion assay; format: cell-based, human; conditions: dilutions from 10 μM to 1 nM
Protocol: Peripheral blood mononuclear cells (PBMCs) were isolated from whole blood by ficoll density separation. Briefly, blood was diluted 1:2 with 0.5 mM EDTA solution in PBS, loaded onto a Ficoll-filled Leucosep tube (Greiner Bio-One), and centrifuged for 20 minutes at 1000×g. After centrifugation, the leukocyte/PBMC layer was collected and sequentially washed three times with 0.5 mM EDTA solution in PBS.
Monocytes (CD14+) were isolated from PBMCs using magnetic bead-based separation following vendor specifications, e.g., Biolegend MojoSort Human CD14 Selection Kit protocol. In brief, PBMCs were labeled with biotinylated antibodies against cell surface receptors for cells not in the population of interest. The labeled cells are then captured by streptavidin-coated magnetic beads and removed by magnetic incubation. The uncaptured cells that flow through the magnetic separation are predominantly comprised of the population of interest, in this case CD14+ monocytes.
Monocytes were differentiated into macrophages by culturing in DMEM complete medium containing 10% FBS for seven days in the presence of 40 ng/mL human M-CSF. Media was changed on day 1 and day 4. On Day 4, macrophages were polarized to various subtypes as follows: M0—incubated with 40 ng/mL M-CSF; M1—cultured with 40 ng/mL M-CSF, 20 ng/mL IFNγ, and 50 ng/mL LPS; M2—incubated with 40 ng/mL M-CSF, 20 ng/mL 1L4, 20 ng/mL IL10, and 20 ng/mL TFGB. On day 7, cells were harvested by scraping them from the tissue culture plates and transferring them to 96-well plates.
Supernatants were collected at 24, 48, and 72 hrs and cytokine secretion was analyzed by flow cytometry using a LEGENDplex assay (BioLegend). In brief, following manufacturer's protocol, beads that are pre-coated with antibodies specific to various cytokines were incubated with cell supernatant. […] The beads were then stained and the captured cytokine composition assessed by flow cytometry.
M1 macrophage polarization is defined as increase in production of IL-12, TNF, IL-6, IL-8, IL-1B, MCP-1 and CCL2. Additionally, markers of M1 polarization that can be detected by RNA include Nos2. M2 polarization is defined as increase in IL-10 and/or a decrease in the M1 cytokines listed above. Additionally, markers of M2 polarization that can be detected by RNA include Arg1, IDO, PF4, CCL24, IL10, and IL4Ralpha.

[3] = test system: Primary Natural Killer (NK) cells; assay: NK cell ADCC assay with trastuzumab-coated Her2 expressing target cells; format: cell-based, human; conditions: for ADCC of NK cells treated with metaproterenol alone relative to NK cells pre-treated with this antagonist prior to the agonist: antagonist pre-treatment prior to metaproterenol
Protocol: Primary Natural Killer (NK) cells are isolated from human peripheral blood using a magnetic bead-based separation kit that negatively selects NK cells by sequestering other defined cell types (T, B, monocytes, etc.). Isolated NK cells are incubated with a target cell line, for example a Her2 expressing cancer cell line that has been pre-coated with trastuzumab, an anti-Her2 antibody, at a range of target-to-effector cell ratios. Following antibody-dependent cell cytotoxicity (ADCC)—antibody-mediated killing of the target cells by the NK cells, the number of surviving target cells is assessed by a fluorescent viability stain.

[4] = low sub-nanomolar concentrations, 72 hours post treatment
[5] = T cells from two different donors, multiple time points

## NCCc1ccc(O)c(O)c1 [dopamine]
Primary human T cells; 24 and 48 hours post stimulation, nanomolar concentrations
  production of the pro-survival cytokine IL-2: increase
Primary human T cells; [4]
  production of the pro-inflammatory cytokine IL-5: increase
  production of the pro-inflammatory cytokine IL-6: increase
  production of the pro-inflammatory cytokine IL-10: increase
  production of the pro-inflammatory cytokine IL-13: increase
Primary human T cells; low sub-nanomolar concentrations, 72 hours post treatment, con A sub-maximally activated T cells
  production of the pro-inflammatory cytokine IFNγ: increase

## O=C(CCCN1CCC(O)(c2ccc(Cl)cc2)CC1)c1ccc(F)cc1 [haloperidol]
[1]
  effect of antagonist pre-treatment on the quinpirole-induced increase of CCR7+ T cells in the lymph node: inhibited

## CC(C)NCC(O)c1ccc(O)c(O)c1 (stereo not drawn) [isoproterenol]
Primary human T cells; T cells from two different donors, 72 hours (FIG. 6A)
  production of pro-inflammatory cytokine IFNγ: decreased
Primary human T cells; T cells from two different donors, 72 hours (FIG. 6B)
  production of pro-inflammatory cytokine TNFα: decreased
Primary human T cells; T cells from two different donors, 72 hours (FIG. 6C)
  production of pro-inflammatory cytokine IL-10: decreased
Primary human T cells; [5]
  amount of pro-inflammatory cytokine IL-10: decrease
  production of pro-inflammatory cytokine IFNγ: decrease
  production of pro-inflammatory cytokine TNFα: decrease
[2]; M1 marker
  transcript of NOS2: decrease
[2]; M2 marker
  transcripts for Arg1: increase
  transcripts for IL-10: increase
[2]
  macrophage polarization (M1 or M2 phenotype): polarized toward an M2 phenotype

## CC(C)NCC(O)c1cc(O)cc(O)c1 (stereo not drawn) [metaproterenol]
[3]; surviving target cells by fluorescent viability stain
  ADCC induced by agonist-treated NK cells, compared with NK cells pre-treated with a beta adrenergic antagonist prior to the agonist: significantly less ADCC

## CC(C)(C)NCC(O)COc1cccc2c1CC(O)C(O)C2 (stereo not drawn) [nadolol]
[3]
  ADCC of NK cells treated with metaproterenol alone relative to NK cells pre-treated with this antagonist prior to the agonist: significantly less ADCC

## CC(C)NCC(O)COc1cccc2ccccc12 (stereo not drawn) [propranolol]
[3]
  ADCC of NK cells treated with metaproterenol alone relative to NK cells pre-treated with this antagonist prior to the agonist: significantly less ADCC

## neuropeptide Y
Primary human T cells; sub-nanomolar concentrations, 48 hours post-treatment
  cytokine IL-4: increase
